Source: patent US20250205252A1, “7-KETOLITHOCHOLIC ACID FOR USE IN THE TREATMENT OF GUT DYSBIOSIS AND AS A PREBIOTIC” (NZP UK Limited, priority 2022, published 2025)
Like-named read-outs stand apart in the source and are kept apart here.

How the values were obtained:
[1] = system: Streptococcus spp. (Strp); test: 3-stage gut model, flow-FISH enumeration, Streptococcus; details: FIG. 6
[2] = system: Total bacteria; test: Batch culture fermentation of faecal slurry, flow-FISH enumeration (Total); assay type: cell-based; details: 7-KLCA at 5 and 10 h, maltodextrin only at 5 h
[3] = system: bacterial metabolites lactate, acetate, butyrate, propionate and valerate; test: 3-stage gut model, bacterial metabolite quantification by GC-MS; assay type: cell-based
[4] = system: Desulfovibrionales and Dessulfuromonadales; test: Batch culture fermentation of faecal slurry, flow-FISH enumeration (DSV); assay type: cell-based
[5] = system: Eubacterium rectale; test: 3-stage gut model, bacterial composition by 16s rRNA sequencing, Eubacterium rectale; details: after treatment, proximal region of the colon; before 4%
[6] = system: Atopobium-Coriobacterium; test: Batch culture fermentation of faecal slurry, flow-FISH enumeration (ATO); assay type: cell-based
[7] = system: Eubacterium eligens; test: 3-stage gut model, bacterial composition by 16s rRNA sequencing, Eubacterium eligens; details: after treatment, 2% before
[8] = system: Roseburia spp. (Rrec584); test: 3-stage gut model, flow-FISH enumeration, Roseburia; details: across V1, V2 and V3; not statistically significant
[9] = system: Desulfovibrionales (DSV687); test: 3-stage gut model, flow-FISH enumeration, Desulfovibrionales; details: FIG. 6
[10] = system: Bifidobacterium species; test: Batch culture fermentation of faecal slurry, flow-FISH enumeration (BIF); assay type: cell-based
[11] = system: Eubacterium rectale (Erec482); test: 3-stage gut model, flow-FISH enumeration, Eubacterium rectale; details: across V1, V2 and V3; not statistically significant
[12] = system: Clostridium species; test: 3-stage gut model, bacterial composition by 16s rRNA sequencing, Clostridium; assay type: cell-based; details: after treatment; from 5.6%
[13] = system: Bacteroides xylanisolvens; test: 3-stage gut model, bacterial composition by 16s rRNA sequencing, Bacteroides xylanisolvens; details: after treatment, transverse region; 2% before
[14] = system: Bifidobacterium spp.; test: 3-stage gut model, bacterial composition by 16s rRNA sequencing, Bifidobacterium; details: after treatment, V3 (distal colon); lower than the baseline
[15] = system: total bacteria (EUB-I-II-III); test: 3-stage gut model, flow-FISH enumeration, total bacteria; details: for total bacteria (EUB-I-II-III) after treatment: proximal region (V1), 400 mg/day, 512 h (SS2)
[16] = assay type: in vivo, CD-1 mice
Procedure: The study design: • CTRL 1 Mice on normal diet for 60 days (5 mice) • CTRL 2 Mice on normal diet with 7KLCA at 10 mg/kg for 60 days (5mice) • CTRL 3 Mice on normal diet for 30 days, then 30 days on a high glucose diet (5 mice) • Treated Mice on normal diet for 30 days, then 30 days on a high glucose diet with 7KLCA throughout the study (5 mice)
Standard diet (10.6% fat J/J, 29.0% protein J/J and 60.4% carbohydrate J/J). High glucose diet (10.5% fat J/J, 16.4% protein J/J and 73.1% carbohydrate J/J). For all experimental group, free accesses to tap water The animals were kept in group of 5 animals/sex/group/cage in Plexiglas cages.
Experiments were carried out in 8-12-week-old male CD-1 mice according to the guidelines for the safe use and care of experimental animals in accordance with the Italian D.L. no. 116 of 27 Jan. 1992 and associated guidelines in the European Communities Council (86/609/ECC and 2010/63/UE) including the 3Rs concept (Kilkenny et al, 2010; McGrath et al, 2015). Animals were housed with ad libitum access to food and water and maintained on a 12-hour light/dark cycle. Experimental study groups were randomized and blinded. The animals in the control groups were handled in an identical manner to the treated group using the respective vehicle and the same volume of administration. Tested item formulation or vehicle was administered by oral gavage. The body weight was recorded once before the assignment to the experimental groups, on the first day of administration, and then weekly during the treatment.
The dose of 7-KLCA used in this study was 10 mg/kg/day. The vehicle used was DMSO in saline solution (NaCl 0.9%), 1/3 w/w. 7-KLCA was solubilised in DMSO (1 part w/w) and then resuspended in saline solution (3 parts w/w). This solution (200 μl/mouse) was prepared freshly every day and was kept under magnetic stirring during the daily administration.
The body weight was recorded once before the assignment to the experimental groups, on the first day of administration, and then weekly.
General clinical observations were performed at least once a day, at the same hour. The health condition of the animals was recorded.
After overnight fasting, blood of the animals was collected in serum separator tubes. FIGS. 10 and 13 show the change in body weight for the mice in the study.

[17] = system: Dialister pneumosintes; test: 3-stage gut model, bacterial composition by 16s rRNA sequencing, Dialister pneumosintes; details: after treatment, before 7%
[18] = system: Bifidobacterium spp. (Bif164); test: 3-stage gut model, flow-FISH enumeration, Bifidobacterium
[19] = system: bacterial metabolites; test: 3-stage gut model, metabolite spectra analysis by 1H NMR; details: V3 (distal colon)
[20] = system: SCFAs acetate, propionate, butyrate and lactate; assay type: cell-based; details: preliminary results from one donor, FIG. 3
[21] = system: Bacteroides-Prevotella (BAC303); test: 3-stage gut model, flow-FISH enumeration, Bacteroides-Prevotella; details: 400 mg/day, 512 h; for Bacteroides-Prevotella (BAC303) population numbers after treatment: transverse region (V2)
[22] = system: Clostridium histolyticum (Chis150); test: 3-stage gut model, flow-FISH enumeration, Clostridium histolyticum; assay type: cell-based; details: FIG. 6
[23] = system: Faecalibacterium prausnitzii; test: 3-stage gut model, bacterial composition by 16s rRNA sequencing, F. prausnitzii; details: after treatment
[24] = system: Faecalibacterium prausnitzii (Fprau655); test: 3-stage gut model, flow-FISH enumeration, Faecalibacterium prausnitzii
[25] = V1, V2 and V3, not statistically significant
[26] = HGD+7KLCA vs CTRL 3 (HGD), day 60
[27] = normal diet 60 days, CTRL 2 vs CTRL 1

C[C@H](CCC(=O)O)[C@H]1CC[C@H]2[C@@H]3C(=O)C[C@@H]4C[C@H](O)CC[C@]4(C)[C@H]3CC[C@]12C [7-KLCA, 3α-hydroxy-7-oxo-5β-cholanic acid]
increases in pathogenic Streptococcus [1]: no statistically significant increases
change in total bacteria, statistical significance [2]: statistically significant increases
change in acetate concentration ([3]; GC-MS, after treatment vs SS1): no statistically significant changes
change in butyrate concentration ([3]; GC-MS, after treatment vs SS1): no statistically significant changes
change in valerate concentration ([3]; GC-MS, after treatment vs SS1): no statistically significant changes
change in lactate concentration [3, 25]: increases measured
change in propionate concentration [3, 25]: increases measured
increases in pathogenic species Desulfovibrionales and Desulfuromonadales [4]: no increases
abundance of Eubacterium rectale [5]: 18%
increases in pathogenic species Atopobium, Coriobacterium [6]: no increases
abundance of Eubacterium eligens ([7]; V1): 2%
abundance of Eubacterium eligens ([7]; V2): 5%
abundance of Eubacterium eligens ([7]; V3): 2%
change in Roseburia spp. between baseline and after treatment [8]: increase
increases in pathogenic Desulfovibrionales [9]: no statistically significant increases
Bifidobacterium numbers ([10]; at T5, vessels containing 7-KLCA and maltodextrin): 7.45±0.16 Log10 CFU/mL
Bifidobacterium numbers ([10]; at T10, vessels containing 7-KLCA and maltodextrin): 7.55±0.21 Log10 CFU/mL
change in Bifidobacterium spp. (BIF) numbers, statistical significance ([10]; batch culture, 7-KLCA at 5 and 10 h): statistically significant increases
Bifidobacterium numbers ([10]; starting value (0 h), vessels containing 7-KLCA and maltodextrin): 6.48±0.14 Log10 CFU/mL
change in Eubacterium rectale between baseline and after treatment [11]: increase
Clostridium species, of total bacterial species detected [12]: 4.5%
abundance of Bacteroides xylanisolvens [13]: 9%
abundance of Bifidobacterium spp. [14]: 5%
numbers of total bacteria after treatment versus Baseline ([15]; all three regions of the model, not significant): greater
total bacteria (EUB-I-II-III) after treatment [15]: 9.35±0.16 Log10 CFU/mL
toxicity ([16]; 10 mg/kg, 60 days, oral gavage): no toxicity was observed
blood glucose levels ([16]; HGD+7KLCA vs CTRL 3 (HGD), after 60 days): significantly lower
HDL cholesterol levels [16, 26]: slight, though not significant, increase
LDL cholesterol levels [16, 26]: significantly reduced
total cholesterol levels [16, 26]: significantly reduced
weight gain ([16]; after switch to HGD diet (days 30-60), 10 mg/kg/day, CTRL 3 gained significantly more): gained a similar amount of weight to the mice on the normal diet
weight gains ([16]; initial 30-day period on standard diet, treated group vs CTRL 3): no significant difference
insulin levels ([16]; normal diet 30 days followed by HGD diet 30 days): trend of increased insulin levels
weight gains ([16]; normal diet 60 days, 10 mg/kg oral gavage (CTRL 2) vs CTRL 1): no significant difference
blood glucose levels [16, 27]: no significant difference
levels of HDL cholesterol [16, 27]: no significant difference
levels of LDL cholesterol [16, 27]: no significant difference
levels of total cholesterol [16, 27]: no significant difference
Dialister pneumosintes, percentage of total bacteria composition ([17]; distal colon (V3)): 3%
Dialister pneumosintes, percentage of total bacteria composition ([17]; transverse colon (V2)): 3%
increase in Bifidobacterium spp. (Bif164) between Baseline and after treatment, statistical significance ([18]; 3-stage gut model): no statistically significant increases
observed change in Bifidobacterium spp. numbers after treatment ([18]; across all three stages (V1, 2 and 3)): observed increase
Bifidobacterium spp. (Bif164) numbers after treatment ([18]; transverse region, Baseline Log 10 7.54±1.06 CFU/mL): 8.16±0.13 Log 10 CFU/mL
alanine in 1H NMR spectrum ([19]; after treatment): detected
acetate peaks in 1H NMR spectrum ([19]; after vs before treatment): higher peaks
bacterial metabolite iso-leucine in 1H NMR spectrum ([19]; after vs before treatment): presence after treatment
bacterial metabolite leucine in 1H NMR spectrum ([19]; after vs before treatment): presence after treatment
propionate peaks in 1H NMR spectrum ([19]; after vs before treatment): higher peaks
peaks of butyrate in 1H NMR spectrum ([19]; after vs prior to treatment): greater
SCFA production (metabolic profile) [20]: promoting beneficial SCFA production
Bacteroides-Prevotella population numbers after treatment ([21]; distal region (V3)): 7.69±0.15 Log10 CFU/mL
Bacteroides-Prevotella (BAC303) population numbers after treatment [21]: 8.47±0.24 Log10 CFU/mL
increases in pathogenic Clostridium histolyticum [22]: no statistically significant increases
abundance of F. prausnitzii ([23]; V3 (distal colon), from 0.6%): 10%
abundance of Faecalibacterium prausnitzii ([23]; proximal region of the colon (V1), before 4%): 17%
abundance of F. prausnitzii, of total bacterial composition ([23]; transverse region of the colon (V2)): 18%
change in numbers of Faecalibacterium prausnitzii between baseline and after treatment ([24]; 7KLCA: V2 and V3): statistically significant increases
numbers of Faecalibacterium prausnitzii after treatment ([24]; V2, baseline Log10 7.47±0.91 CFU/mL): 8.81±0.09 Log10 CFU/mL
numbers of Faecalibacterium prausnitzii after treatment ([24]; V3, baseline Log10 6.95±0.97 CFU/mL): 8.39±0.22 Log10 CFU/mL

C[C@H](CCC(=O)O)[C@H]1CC[C@H]2[C@@H]3[C@@H](O)C[C@@H]4C[C@H](O)CC[C@]4(C)[C@H]3CC[C@]12C [UDCA, ursodeoxycholic acid, reference compound]
total bacteria (EUB-I-II-III) after treatment [15]: 8.74±0.50 Log10 CFU/mL
Bacteroides-Prevotella (BAC303) population numbers after treatment [21]: 6.94±0.33 Log10 CFU/mL
